Measured values from US6624202B2, “Inhibitors of copper-containing amine oxidases” (priority 2000, dated 2003).
Counter-ions that a name gives are not always drawn. Like-named read-outs stand apart in the source and are kept apart here.

Assays:
[1] = molecular target: T1, Recombinant human VAP-1 SSAO (Homo sapiens, UniProt Q16853); experiment: In vitro inhibition of VAP-1 SSAO activity (coupled colourimetric method); type: biochemical; details: for IC50: 1 mM benzylamine, 1 h at 37° C.; for Selectivity for VAP-1 SSAO over MAO: ratio of total rat MAO IC50 to human VAP-1 SSAO IC50
T1 sequence (Q16853 1-763): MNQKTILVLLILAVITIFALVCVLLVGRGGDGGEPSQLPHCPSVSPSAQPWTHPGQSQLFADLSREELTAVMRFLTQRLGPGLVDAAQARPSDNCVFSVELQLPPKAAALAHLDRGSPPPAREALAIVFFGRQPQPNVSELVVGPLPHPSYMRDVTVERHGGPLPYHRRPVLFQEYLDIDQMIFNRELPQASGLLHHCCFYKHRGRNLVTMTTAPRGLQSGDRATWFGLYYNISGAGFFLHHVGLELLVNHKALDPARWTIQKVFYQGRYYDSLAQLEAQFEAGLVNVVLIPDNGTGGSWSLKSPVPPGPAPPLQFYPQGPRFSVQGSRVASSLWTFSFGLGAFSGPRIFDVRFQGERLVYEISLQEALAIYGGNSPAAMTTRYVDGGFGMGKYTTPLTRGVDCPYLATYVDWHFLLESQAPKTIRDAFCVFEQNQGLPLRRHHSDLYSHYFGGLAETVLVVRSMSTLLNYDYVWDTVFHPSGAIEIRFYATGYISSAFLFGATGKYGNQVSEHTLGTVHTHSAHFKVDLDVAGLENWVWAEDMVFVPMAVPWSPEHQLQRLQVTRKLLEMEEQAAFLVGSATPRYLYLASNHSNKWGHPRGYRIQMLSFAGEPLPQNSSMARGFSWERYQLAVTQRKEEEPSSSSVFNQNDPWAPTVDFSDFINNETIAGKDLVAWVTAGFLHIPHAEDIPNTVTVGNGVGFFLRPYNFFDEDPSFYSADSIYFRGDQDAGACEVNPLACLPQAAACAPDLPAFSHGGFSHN
Protocol: VAP-1 SSAO activity was measured using the coupled colourimetric method essentially as described for monoamine oxidase and related enzymes (Holt, A., et al., Anal. Biochem. 244:384-392 (1997)). Recombinant human VAP-1 SSAO expressed in Chinese Hamster Ovary (CHO) cells was used as a source of VAP-1 SSAO for activity measurements. […] These cells and their culture have previously been described (Smith, D. J., et al., J. Exp. Med. 188:17-27 (1998)). A cell lysate was prepared by suspending approximately 3.6×10^8 cells in 25 ml lysis buffer (150 mM NaCl, 10 mM Tris-Base pH 7.2, 1.5 mM MgCl2, 1% NP40) and incubating at 4° C. overnight on a rotating table. The lysate was clarified by centrifugation at 18000 g for 5 min at room temperature and the supernatant used directly in the assay. The VAP-1 SSAO assay was performed in 96 well microtitre plates as follows. To each well was added a predetermined amount of inhibitor if required. […] Controls lacked inhibitor. The inhibitor was in a total volume of 20 μl in water. The following reagents were then added. 0.2 M potassium phosphate buffer pH 7.6 to a total reaction volume of 200 μl, 45 μl of freshly made chromogenic solution containing 1 mM 2,4-dichlorophenol, 500 μM 4-aminoantipyrine and 4 U/ml horseradish peroxidase and an amount of CHO cell lysate containing VAP-1 SSAO that caused a change of 0.6 A490 per h. […] The plates were incubated for 30 min at 37° C. and the background absorbance measured at 490 nm using a Wallac Victor II multilabel counter. To initiate the enzyme reaction 20 μl 10 mM benzylamine (final concentration=1 mM) was added and the plate incubated for 1 h at 37° C. The increase in absorbance, reflecting VAP-1 SSAO activity, was measured at 490 nm. Inhibition was presented as percent inhibition compared to control after correcting for background absorbance and IC50 values calculated using GraphPad Prism.

[2] = lysate of CHO cells expressing recombinant human VAP-1 SSAO, read-out: VAP-1 SSAO inhibitory activity IC50

`C[C@@H]([C@H](O)c1ccccc1)N(C)N` (as salt: maleate) [Compound 1, (1R,2S)-2-(1-Methylhydrazino)-1-phenyl-1-propanol hydrogenmaleate] gave a melting point of 111 to 113 °C.

With `C[C@H](C(O)c1ccccc1)N(C)N` (single isomer, unassigned) [Compound 48] the IC50 ([1]; VAP-1 SSAO inhibitory activity IC50, lysate of CHO cells expressing recombinant human VAP-1 SSAO) was 280 nM, the “Selectivity for VAP-1 SSAO over MAO” value [1] was 110 and the melting point was 112 to 114 °C.

In the case of `NNCC(O)c1ccccc1` (single isomer, unassigned) [Compound 49], the IC50 [1, 2] is reported as 140 nM, the “Selectivity for VAP-1 SSAO over MAO” value [1] is reported as 70 and the melting point is reported as 99 to 104 °C.

For `NNCC(O)c1ccccc1` (single isomer, unassigned) [Compound 50], the IC50 [1, 2] was 35 nM, the “Selectivity for VAP-1 SSAO over MAO” value [1] was 283 and the melting point was 98 to 103 °C.
